In patent US20240416143A1, “PHOTONIC ANTIMICROBIAL WOUND SURFACE DRESSING” (The General Hospital Corporation, priority 2021, published 2024):

Legend:
Test in all cases: Photoinactivation of 48-hour in vitro biofilms by adjuvant/antibiotic + antimicrobial blue light
MRSA biofilm [1] = format: cell-based, methicillin-resistant Staphylococcus aureus; conditions: 48 h biofilm
MRSA biofilm [2] = format: cell-based, methicillin-resistant Staphylococcus aureus; conditions: 48 h biofilm; aBL 405 nm, 50-250 J/cm^2
Method: (§1) The bacterial suspension was grown in a shaking incubator overnight in BHI broth. Cells were collected by centrifugation at 4,000 rpm for 5 minutes and suspended in PBS at a density of 10^6 CFU/mL. Then, the biofilms were grown for 48 hours (unless otherwise specified) in 96-well microtiter plates as described previously [Ref. 27], with a renewal of the media every 24 hours. Following the 48-hour biofilm growth, fresh 200 μL of PBS with or without menadione in different concentrations were added to the wells and the biofilms were incubated in the dark at 25° C. for 1 hour: 0, 0.5, 1, and 2 μg/mL for MRSA USA300, AF0001, IQ0064; 0, 1, 10, 30 and 50 μg/mL for P. aeruginosa PA01; and 0, 100, and 150 μg/mL for E. coli ATCC 25922. After that, the control and the menadione-treated biofilms were maintained without irradiation (“menadione/dark”). Simultaneously, the aBL was delivered to the other biofilm groups testing different power densities (50, 30, 15, and 10 mW/cm^2) while keeping the same radiant exposure of 250 J/cm^2. After the light exposure, the biofilms were carefully washed two times with PBS and 200 μL of PBS was added to each well. Then, the bacterial biofilms in each well were harvested by scratching with a sterile pipette tip and three wells of each group were pooled together in a 1.5 mL microcentrifuge tube. The total volume obtained, 600 μL (3 wells), was sonicated using a Branson 2510 Water Bath Sonicator (Marshall Scientific, LLC) for 5 minutes and the CFU was determined by 10-fold serial dilutions in PBS on BHI agar plates. CFU was counted after overnight incubation at 37° C. Experiments were performed in triplicate.
A bacterial suspension was grown in a shaking incubator overnight in BHI broth. Cells were collected by centrifugation at 4,000 rpm for 5 minutes and suspended in PBS at a density of 10^6 CFU/mL. Then, the biofilms were grown for 48 hours in 96-well microtiter plates with a renewal of the media every 24 hours. Following the 48-hour biofilm growth, fresh 200 μL of PBS with the tetracyclines minocycline, doxycycline, and demeclocycline in different concentrations were added to the wells and the biofilms were incubated in the dark at 25° C. for 1 hour: 0, 0.25, 0.5, and 1 μg/mL for minocycline; 0, 0.5, 1, and 2 μg/mL for doxycycline; and 0, 0.5, 1, and 2 for demeclocycline. After that, the control and the tetracycline-treated biofilms were maintained without irradiation (“menadione/dark”). Simultaneously, the aBL (405 nm) was delivered to the other biofilm groups testing different power densities (50, 30 mW/cm^2) while keeping the radiant exposures of 50-250 J/cm^2. After the light exposure, the biofilms were carefully washed two times with PBS and 200 μL of PBS was added to each well. Then, the bacterial biofilms in each well were harvested by scratching with a sterile pipette tip and three wells of each group were pooled together in a 1.5 mL microcentrifuge tube. The total volume obtained, 600 μL (3 wells), was sonicated using a Branson 2510 Water Bath Sonicator (Marshall Scientific, LLC) for 5 minutes and the CFU/mL was determined by 10-fold serial dilutions in PBS on BHI agar plates. CFU was counted after overnight incubation at 37° C.

P. aeruginosa biofilm = format: cell-based, Pseudomonas aeruginosa; conditions: 48 h biofilm; aBL 405 nm, 50-250 J/cm^2
Method: The bacterial suspension was grown in a shaking incubator overnight in BHI broth. Cells were collected by centrifugation at 4,000 rpm for 5 minutes and suspended in PBS at a density of 10^6 CFU/mL. Then, the biofilms were grown for 48 hours (unless otherwise specified) in 96-well microtiter plates as described previously [Ref. 27], with a renewal of the media every 24 hours. Following the 48-hour biofilm growth, fresh 200 μL of PBS with or without menadione in different concentrations were added to the wells and the biofilms were incubated in the dark at 25° C. for 1 hour: 0, 0.5, 1, and 2 μg/mL for MRSA USA300, AF0001, IQ0064; […]; and 0, 100, and 150 μg/mL for E. coli ATCC 25922. After that, the control and the menadione-treated biofilms were maintained without irradiation (“menadione/dark”). Simultaneously, the aBL was delivered to the other biofilm groups testing different power densities (50, 30, 15, and 10 mW/cm^2) while keeping the same radiant exposure of 250 J/cm^2. After the light exposure, the biofilms were carefully washed two times with PBS and 200 μL of PBS was added to each well. Then, the bacterial biofilms in each well were harvested by scratching with a sterile pipette tip and three wells of each group were pooled together in a 1.5 mL microcentrifuge tube. The total volume obtained, 600 μL (3 wells), was sonicated using a Branson 2510 Water Bath Sonicator (Marshall Scientific, LLC) for 5 minutes and the CFU was determined by 10-fold serial dilutions in PBS on BHI agar plates. CFU was counted after overnight incubation at 37° C. Experiments were performed in triplicate.
(§2) A bacterial suspension was grown in a shaking incubator overnight in BHI broth. Cells were collected by centrifugation at 4,000 rpm for 5 minutes and suspended in PBS at a density of 10^6 CFU/mL. Then, the biofilms were grown for 48 hours in 96-well microtiter plates with a renewal of the media every 24 hours. Following the 48-hour biofilm growth, fresh 200 μL of PBS with the tetracyclines minocycline, doxycycline, and demeclocycline in different concentrations were added to the wells and the biofilms were incubated in the dark at 25° C. for 1 hour: 0, 0.25, 0.5, and 1 μg/mL for minocycline; 0, 0.5, 1, and 2 μg/mL for doxycycline; and 0, 0.5, 1, and 2 for demeclocycline. After that, the control and the tetracycline-treated biofilms were maintained without irradiation (“menadione/dark”). […] The total volume obtained, 600 μL (3 wells), was sonicated using a Branson 2510 Water Bath Sonicator (Marshall Scientific, LLC) for 5 minutes and the CFU/mL was determined by 10-fold serial dilutions in PBS on BHI agar plates. CFU was counted after overnight incubation at 37° C.

E. coli biofilm = format: cell-based, Escherichia coli; conditions: 48 h biofilm; aBL 405 nm, 50-250 J/cm^2
Method: as §1, §2

SMILES	killing in biofilm by vancomycin combined with aBL (MRSA biofilm [1]; vancomycin 500 μg/mL + aBL 50 mW/cm^2, 250 J/cm^2) [log10 CFU/mL]	effect on biofilms of vancomycin combined with aBL (MRSA biofilm [1]; vancomycin 1 mg/mL)	improvement of aBL antimicrobial effect by vancomycin (MRSA biofilm [1]; vancomycin 5, 15 and 50 μg/mL + aBL 250 J/cm^2)	antimicrobial effect of aBL combined with tetracycline (MRSA biofilm [2])	antimicrobial effect of aBL combined with tetracycline (P. aeruginosa biofilm)	antimicrobial effect of aBL combined with tetracycline (E. coli biofilm)
CN[C@H](CC(C)C)C(=O)N[C@H]1C(=O)N[C@@H](CC(N)=O)C(=O)N[C@H]2C(=O)N[C@H]3C(=O)N[C@H](C(=O)N[C@H](C(=O)O)c4cc(O)cc(O)c4-c4cc3ccc4O)[C@H](O)c3ccc(c(Cl)c3)Oc3cc2cc(c3O[C@@H]2O[C@H](CO)[C@@H](O)[C@H](O)[C@H]2O[C@H]2C[C@](C)(N)[C@H](O)[C@H](C)O2)Oc2ccc(cc2Cl)[C@H]1O [vancomycin]	2.65	only minimal effects	did not show any improvement			
CN(C)[C@@H]1C(O)=C(C(N)=O)C(=O)[C@@]2(O)C(O)=C3C(=O)c4c(O)ccc(Cl)c4[C@@H](O)[C@H]3C[C@@H]12 [demeclocycline]				enhancement in antimicrobial effects	enhancement in antimicrobial effects	enhancement in antimicrobial effects
